Test results published in patent publication US20210292277A1 (priority 2020, published 2021).
Several values for one entry are separate records, joined by “and”; a condition that tells them apart may be missing. Equal values may be shown once.

Experiments:
[1] = test system: 17 coronavirus proteases from human and animal coronaviruses; type: cell-based
SARS-CoV-2 [2] = assay: microbe, parasite or virus in culture; type: cell-based; conditions: Severe acute respiratory syndrome coronavirus 2; SARS-CoV-2 infected cells, dose response FIG. 3; read-out: EC50 against SARS-CoV-2
[3] = test system: COVID-19/SARS-CoV-2 virus; type: cell-based
SARS-CoV-2 [4] = assay: Antiviral efficacy in hamsters challenged intranasally with SARS-CoV-2, S.C. GC376; type: in vivo, hamster; conditions: for trachea PFU: trachea samples
Description: The hamsters were sacrificed and various tissues were collected for analysis.

SARS CoV-2 = assay: Antiviral efficacy of GC376 and REMDESIVIR in golden Syrian hamsters challenged intranasally with SARS-CoV-2, IP; type: in vivo, golden Syrian female hamsters; conditions: for body weights: IP injection for eight days, versus control animals with SARS-CoV-2 alone; for lung PFU: lung samples, days 4 and 14
Description: The animals were sacrificed at days 4, 8, or 14 following initiation of the experiment and the various tissues were then collected for analysis. Detailed experimental design and experimental parameters can be found in FIG. 9A, FIG. 9B, and FIG. 10.

[5] = test system: SARS-CoV-2 viral infection; assay: Treatment of a patient suffering from COVID-19; type: in vivo; conditions: human patient, intravenous, subcutaneous, or oral, daily for 21 days
SARS-CoV-2 virus = assay: Prophylactic treatment of a patient susceptible to COVID-19; type: in vivo; conditions: human patient at risk, daily for 21 days beginning one week prior to possible exposure
[6] = CC50 in the structure table of GC543 and GC583 (no method given); type: cell-based; conditions: cells not given

## CC(C)C[C@H](NC(=O)OCc1ccccc1)C(=O)N[C@@H](C[C@@H]1CCNC1=O)C(O)S(=O)(=O)[O-].[Na+] (stereo partly drawn) [GC376]
[1]
  activity against coronavirus proteases: activity across all coronaviruses tested, including SARS-CoV-2
SARS-CoV-2 [2]
  EC50: ~0.81 µM
[3]; 5 μM GC376 versus virus solution without GC376
  lowering of virus titer: approximately 15 fold
[3]; virus solution with 5 μM GC376, average of three replicate plates
  PFU/ml, average: 2.1×10^6 pfu/ml
[3]; virus solution with 5 μM GC376, individual plates
  PFU/ml, each replicate plate: 2.75×10^6 pfu/ml and 2.25×10^6 pfu/ml and 1.30×10^6 pfu/ml
SARS-CoV-2 [4]; 10 mg/kg/day and 25 mg/kg/day, versus infected controls without GC376
  body weight at 10 mg/kg/day and 25 mg/kg/day: appeared to lose more weight initially, but by the eighth day following initiation of the experiment had a body weight that was similar to the control animals
SARS-CoV-2 [4]; 100 mg/kg/day cohort
  lung PFU versus control: had fewer PFUs in their lungs than the control animal, although two animals had more PFUs than the control
SARS-CoV-2 [4]; each individual hamster, days 0-8, any dose
  body weights of individual hamsters: trend show for each animal to regain its normal body weight
SARS-CoV-2 [4]; 100 mg/kg/day group
  trachea PFU: did show noticeable PFU formation from trachea samples
SARS-CoV-2 [4]; all groups
  trachea PFU: most of the animals did not show PFUs from samples taken from the trachea
SARS CoV-2
  body weights: maintained similar body weights to the control animals
  lung PFU: reduction of PFU at days 4 and 14
[5]
  outcome after 21 days of treatment: recovered from the SARS-CoV-2 infection
SARS-CoV-2 virus
  outcome after prophylactic treatment: not have developed COVID-19 or a SARS-CoV-2 infection

## O=C[C@@H](C[C@@H]1CCNC1=O)NC(=O)[C@H](CC1CCCCC1)NC(=O)OCc1ccccc1 [GC543]
[6]
  CC50: > 100 µM

## O=C[C@@H](C[C@@H]1CCNC1=O)NC(=O)[C@H](CC1CCCCC1)NC(=O)OCc1cccc(Cl)c1 [GC583]
[6]
  CC50: > 100 µM

## CCC(CC)COC(=O)[C@H](C)N[P@](=O)(OC[C@H]1O[C@@](C#N)(c2ccc3c(N)ncnn23)[C@H](O)[C@@H]1O)Oc1ccccc1 [reference compound]
SARS CoV-2
  body weights: maintained similar body weights to the control animals
  lung PFU: reduction of PFU at days 4 and 14
